Reference: patent US20250199015A1, “CYCLIN-DEPENDENT KINASE 2 INHIBITORS FOR MEDICAL TREATMENT” (INCYCLIX BIO, LLC, priority 2022, published 2025)
Where “and” joins values, the source holds several entries; their conditions need not be identical. Equal entries are not always repeated. Structures can show the parent of a compound that is named as a salt. Marks after values point to notes of the source that are not given here.

Assays:
[1] = Thermodynamic solubility in pH 1, 4.5 and 6.8 buffers; assay type: physicochemical
Method: The thermodynamic solubility of HCl Pattern 1 was determined in duplicate according to the following procedure. HCl Pattern 1 (20 mg) was weighed into 6×2 mL glass vials. Then, 1000 μL of pH 1 hydrochloride, pH 4.5 acetate and pH 6.8 phosphate buffers were added to individual vials in 100 μL aliquots to give white slurries at each pH value. […] The pH was re-recorded and adjusted where necessary. The samples were isolated by centrifuge filtration. […] The concentrations of the saturated solutions were determined by HPLC.
Buffer systems were added in 250 μL aliquots up to a total volume of 1 mL. The pH of each slurry was recorded and adjustments were made to the pH 1 system. No initial adjustment was made to the pH 4.5 or 6.8 system. An aliquot of the slurry was analyzed by XRPD. […] The pH was checked and adjusted where required. The slurries were filtered by centrifugation. The solids were isolated and analyzed by XRPD. The solutions were analyzed by HPLC to determine concentration.

[2] = 7-day indicative stability (XRPD, HPLC purity); assay type: physicochemical; details: for change in form after 7 days / purity change after 7 days: ambient
Method: The stability of HCl Pattern 1 was determined using the following procedure. HCl Pattern 1 (30 mg) was weighed into 3×2 mL glass vials. The three vials were then stored under the following conditions for 7-days: • Ambient temperature, humidity and light (open vial); • 40° C./75% RH (open vial); • 80° C. (closed vial).
After 7 days, each sample was analyzed by: XRPD to assess form changes and HPLC to determine the purity of the samples.
After 7 days at each storage condition, the solids were analyzed by XRPD to assess any changes in solid form and by HPLC to determine purity.

[3] = Dynamic Vapor Sorption (DVS); assay type: physicochemical; details: for DVS uptake, first sorption cycle / DVS uptake, second sorption cycle: 25° C., to 90% RH
Method: Approximately 10-20 mg of sample was placed into a mesh vapor sorption balance pan and loaded into a DVS Advantage dynamic vapor sorption balance by Surface Measurement Systems. The sample was subjected to a ramping profile from 40-90% relative humidity (RH) at 10% increments, maintaining the sample at each step until a stable weight had been achieved (dm/dt 0.004%, minimum step length 30 minutes, maximum step length 500 minutes) at 25° C. After completion of the sorption cycle, the sample was dried using the same procedure to 0% RH and then a second sorption cycle back to 40% RH. Two cycles were performed. The weight change during the sorption/desorption cycles were plotted, allowing for the hygroscopic nature of the sample to be determined. XRPD analysis was then carried out on any solid retained.

[4] = Solvate formation or form change in ethanol (thermal cycling); assay type: physicochemical; details: three days, 40° C./5° C.
Method: HCl Pattern 1 was stirred in ethanol to assess any solvation or form change in the solvent system. The following procedure was carried out. HCl Pattern 1 (20 mg) was suspended in 1 mL of ethanol. The suspension was thermally cycled for three days according to the following cycle: • Heat to 40° C. at a rate of 0.1° C./min; • Hold at 40° C. for one hour; • Cool to 5° C. at a rate of 0.1° C./min; • Hold at 5° C. for one hour.
After three days, observations were recorded, and solids were isolated by centrifugation. Wet solids were analyzed by XRPD.

[5] = Salt screen storage at 40° C./75% RH, XRPD form; assay type: physicochemical; details: after storage at 40° C./75% RH, scale up from ethyl acetate
Method: XRPD analysis was carried out on any isolated solids or gums as described in Example 10 below. The XRPD plate, and the isolated solids, were dried at 40° C. for ca. 24 hours and re-analyzed by XRPD. The XRPD plate was further dried at 40° C./75% RH for ca. 24 hours and XRPD analysis was repeated.
After three days, observations were recorded and solids were isolated by centrifugation. The wet solids were analyzed by XRPD. Solids were dried at 40° C. under vacuum for 72 hours and re-analyzed by XRPD. Solids were dried at 40° C./75% RH for 18 hours and re-analyzed by XRPD.

[6] = Disproportionation study in water; assay type: physicochemical
Method: A study disproportionation was carried out using the following procedure. […] The pH was recorded, and the suspension was stirred for ca. 24 hours at 25° C. After 24 hours the pH was recorded, and the slurry was filtered by centrifugation. The solids were isolated and analyzed by XRPD. The solution was isolated and analyzed by HPLC to determine concentration.

[7] = Thermodynamic solubility in pH 1, 4.5 and 6.8 buffers; assay type: physicochemical; details: for Solubility: 25° C., 24 hours
[8] = Hydration study in ethanol:water mixtures; assay type: physicochemical; details: 24 hours; for XRPD: solids from slurry
Method: A hydration study was carried out on the material according to the following procedure. […] Ethanol: water solutions (Table 77) were added in 250 μL aliquots to a total volume of 1 mL. The slurries were stirred at 25° C. for 24 hours. After 24 hours the slurries were filtered by centrifugation. The solids were isolated and analyzed by XRPD. The solution was isolated and analyzed by HPLC to determine concentration.

[9] = test system: caspase 3/7 in Hs68 cells; experiment: CaspaseGlo-3/7 in normal fibroblasts; assay type: cell-based; details: 300 pM to 10 μM; 24, 48 or 72 hours
Method: The Hs68 Normal foreskin fibroblast cell line was grown in DMEM-high glucose/1× Glutamax/10% fetal bovine serum and was plated at 1,000 cells/well in Corning 96 well white wall/clear bottom tissue culture treated plates. […] Plates were removed from incubator at each specified timepoint and treated with CaspaseGlo-3/7 (Promega, Inc) following manufacturer specifications. Plates were then read on Biotech luminometer with 1 sec/well integration. Results were converted to Microsoft Excel and transferred to GraphPad Prism for Analysis (FIG. 5A-C).

[10] = test system: caspase 3/7 in H526 cells; experiment: CaspaseGlo-3/7 activation; assay type: cell-based, human
Method: (§1) Plates were removed from incubator and treated with CaspaseGlo-3/7 (Promega, Inc) following manufacturer specifications. Plates were then read on a Biotech luminometer with 1 sec/well integration. Results were converted to Microsoft Excel and transferred to GraphPad Prism for Analysis (FIG. 22D).
as §1, with “from the” for “from”, “incubator at each specified timepoint” for “incubator”, “on” for “on a”, “27A-C).” for “22D).”

[11] = pH 6.8 (Phosphate) buffer, 25° C., 24 hours
[12] = residual solids, pH 1 (HCl) buffer, 25° C., 24 hours
[13] = 7 days, 40° C./75% RH (open vial)
[14] = 7 days, ambient temperature, humidity and light (open vial)

With `NS(=O)(=O)c1ccc(Nc2ncc3cc4n(c3n2)C2(CCCCC2)C(=O)NN4)cc1` [HCl Pattern 1] the Solubility ([1]; pH 1 (HCl) buffer, 25° C., 24 hours) was 2.7 µg/mL, the solubility at 24 h ([1]; pH 1 hydrochloride buffer, 25 °C, pH 1, simulated gastric fluid, thermodynamic from solid, pH 1 (HCl) buffer, 24 hours) was 3.8 µg/mL and the Solubility ([1]; pH 4.5 (Acetate) buffer, 25° C., 24 hours) was “<LOQ”. The “residual solids by XRPD” value ([1]; pH 4.5, 25° C., 24 hours) was “formation of free base”, the Solubility [1, 11] was “<LOQ” and the “residual solids by XRPD” value ([1]; pH 6.8, 25° C., 24 hours) was “formation of free base”. For the same molecule, the XRPD [1, 12] was 1, the “HPLC Purity” value [2, 13] was 97.98 % w/w and the Observation [2, 13] was “White Solid”. The XRPD [2, 13] was “HCl Pattern 1”, the “HPLC Purity” value ([2]; 7 days, 80° C. (closed vial)) was 96.97 % w/w and the Observation ([2]; 7 days, 80° C. (closed vial)) was “White Solid”. The XRPD ([2]; 7 days, 80° C. (closed vial)) was “HCl Pattern 1”, the “HPLC Purity” value [2, 14] was 98.02 % w/w and the Observation [2, 14] was “Yellow Solid”. For the same molecule, the XRPD [2, 14] was “HCl Pattern 1”, the “change in form after 7 days” value ([2]; 40° C./75% RH, 80° C.) was “no observable change in form” and the “purity change after 7 days” value ([2]; 40° C./75% RH, 80° C.) was “decrease in purity was noted for all samples”. For the same molecule, the “form post DVS by XRPD” value [3] was “no observable form change had occurred”, the “hygroscopicity (DVS)” value [3] was “moderately hygroscopic” and the “DVS uptake, first sorption cycle” value [3] was 5.15%. The “DVS uptake, second sorption cycle” value [3] was 5.10% and the “form after thermal cycling in ethanol” value [4] was “produced HCl Pattern 2”.
In the case of `NS(=O)(=O)c1ccc(Nc2ncc3cc4n(c3n2)C2(CCCCC2)C(=O)NN4)cc1.O=P(O)(O)O` [phosphate Pattern 7], the XRPD [5] is reported as “Pattern 7*”, the “form after stirring in water” value ([6]; 25° C., ca. 24 hours) is reported as “indicative of disproportionation” and the XRPD ([6]; slurry at 25° C. in water, 24 hours) is reported as “Free Base Pattern 10”. The XRPD ([7]; 24 h Solubility at 37° C., pH 1.2, residual solids) was “HCl Pattern 1”, the Solubility ([7]; pH 1 (HCl) buffer) was 3.8 µg/mL and 2.7 µg/mL and the Solubility ([7]; pH 4.5 (Acetate) buffer) was 5.8 µg/mL and 5.2 µg/mL. The XRPD ([1]; 24 h Solubility at 37° C., pH 4.5, residual solids) was “Free Base Pattern 1”, the XRPD ([1]; 24 h Solubility at 37° C., pH 6.8, residual solids) was “Free Base Pattern 1” and the “thermodynamic solubility in three buffer systems” value ([1]; pH 1, 4.5, 6.8) was “low aqueous solubility”. The “residual solids by XRPD” value ([1]; pH 1, 25° C., 24 hours) was “mixture of HCl Pattern 1 and free base”, the “24 h Solubility at 37° C., Concentration” value ([1]; pH 4.5) was 5.2 µg/mL and the “residual solids by XRPD” value ([1]; pH 4.5, 25° C., 24 hours) was “dissociation to free base”. For the same molecule, the “24 h Solubility at 37° C., Concentration” value ([1]; pH 6.8) was 4.2 µg/mL, the Solubility [1, 11] was 4.2 µg/mL and the “residual solids by XRPD” value ([1]; pH 6.8, 25° C., 24 hours) was “dissociation to free base”. For the same molecule, the XRPD [1, 12] was “HCl Pattern 1”, the XRPD ([1]; residual solids, pH 4.5 (Acetate) buffer, 25° C., 24 hours) was “Free base” and the XRPD ([1]; residual solids, pH 6.8 (Phosphate) buffer, 25° C., 24 hours) was “Free base”. For the same molecule, the “HPLC Purity” value ([2]; 7 Day Stability, 40° C./75% RH) was 89.63 % area, the “HPLC Purity” value ([2]; 7 Day Stability, 80° C.) was 98.08 % area and the “HPLC Purity” value ([2]; 7 Day Stability, Ambient, Light) was 97.90 % area. For the same molecule, the “HPLC Purity” value [2, 13] was 89.63 % w/w, the Observation [2, 13] was “Faint Pink Solid” and the XRPD [2, 13] was “Phosphate Pattern 7*”. The “HPLC Purity” value ([2]; 7 days, 80° C. (closed vial)) was 98.08 % w/w, the Observation ([2]; 7 days, 80° C. (closed vial)) was “White Solid” and the XRPD ([2]; 7 days, 80° C. (closed vial)) was “Phosphate Pattern 7*”. For the same molecule, the “HPLC Purity” value [2, 14] was 97.87 % w/w, the Observation [2, 14] was “Faint Yellow Solid” and the XRPD [2, 14] was “Phosphate Pattern 7*”. For the same molecule, the “change in form after 7 days” value ([2]; 40° C./75% RH, 80° C.) was “no observable change in form”, the “purity change after 7 days” value ([2]; 40° C./75% RH, 80° C.) was “significant decrease in purity” and the “form post DVS by XRPD” value [3] was “no observable form change had occurred”. The “hygroscopicity (DVS)” value [3] was “moderately hygroscopic”, the “DVS uptake, first sorption cycle” value [3] was 4.76% and the “DVS uptake, second sorption cycle” value [3] was 5.18%. The “DVS Moisture Uptake at 80% RH” value ([3]; first sorption cycle) was 4.76 wt. %, the XRPD ([3]; post DVS) was “Phosphate Pattern 7*” and the “DVS Moisture Uptake at 80% RH” value ([3]; second sorption cycle) was 5.18 wt. %. The “form after stirring in ethanol:water mixtures” value ([8]; 25° C.) was “disproportionation of the salt to free base material”, the Solubility ([8]; Ethanol:Water (63.6:36.4 % v/v), Calc Aw 0.745, 25° C.) was 0.9878 mg/mL and the Solubility ([8]; Ethanol:Water (92.9:7.1 % v/v), Calc Aw 0.507, 25° C.) was 1.6648 mg/mL. The Solubility ([8]; Ethanol:Water (98.4:1.6 % v/v), Calc Aw 0.257, 25° C.) was 1.2170 mg/mL, the XRPD ([8]; Ethanol:Water (63.6:36.4), Aw 0.745, 25° C.) was “Free Base Pattern 2” and the XRPD ([8]; Ethanol:Water (92.9:7.1), Aw 0.507, 25° C.) was “Free Base Pattern 3”. The XRPD ([8]; Ethanol:Water (98.4:1.6), Aw 0.257, 25° C.) was “Free Base Pattern 3”.
For `CN[C@@H]1C[C@H]2O[C@@](C)([C@@H]1OC)n1c3ccccc3c3c4c(c5c6ccccc6n2c5c31)C(=O)NC4` [staurosporine], the “caspase 3/7 activation” value [9] was “substantial increase”, the “caspase 3/7 activation” value ([10]; 24 hours) was “robust caspase 3/7 activation” and the IC50 ([10]; Homo sapiens, NCI-H526, 72 hours) was 6 nM.
